≈ marks a conversion by molar mass, not a printed value.
Legend:
P388 = test: Cytotoxicity against mouse P388 cells; format: functional, cell-based
[1] = system: Trichophyton mentagrophytes; test: Antifungal activity against Trichophyton mentagrophytes at 30 ug/disk; format: functional; details: read-out: IZ
HeLa = test: Cytotoxicity against human HeLa cells; format: functional, cell-based
Bacillus subtilis = test: Antibacterial activity against Bacillus subtilis at 15 ug/disk; format: functional; details: read-out: IZ
Amorphotheca resinae = test: Antifungal activity against Cladosporium resinae at 15 ug/disk; format: functional; details: read-out: IZ

SMILES | IC50 (P388) [µg/mL] | zone of inhibition at 30 µg/disc [1] [mm] | IC50 (HeLa) [µg/mL] | zone of inhibition at 15 µg/disc (Bacillus subtilis) [mm] | zone of inhibition at 15 µg/disc (Amorphotheca resinae) [mm]
CC1=C[C@@H]2/C=C/C[C@H](C)/C=C(\C)CC/C=C/C(=O)[C@]23C(=O)N[C@@H](Cc2c[nH]c4ccccc24)[C@@H]3[C@@H]1C [PROCHEATOGLOBOSIN I] | 3.99 (≈ 8.27 µM) | 2 |  |  | 
CC1=C(C)[C@H]2[C@H](Cc3c[nH]c4ccccc34)NC(=O)[C@]23C(=O)CC[C@H](O)C(=O)/C(C)=C/[C@@H](C)C/C=C/[C@H]3[C@@H]1O [CHAETOGLOBOSIN E] |  |  | 3.2 (≈ 6.03 µM) |  | 
C/C1=C\[C@@H](C)C/C=C/[C@H]2[C@@H]3O[C@]3(C)[C@@H](C)[C@H]3[C@H](Cc4c[nH]c5ccccc45)NC(=O)[C@]32C(=O)/C=C/C(=O)[C@@H]1O [CHAETOGLOBOSIN A] | 1.94 (≈ 3.67 µM) |  | 3.2 (≈ 6.05 µM) | 3 | 5
CC1=C[C@@H]2/C=C/C[C@H](C)/C=C(\C)[C@@H](O)C/C=C/C(=O)[C@]23C(=O)N[C@@H](Cc2c[nH]c4ccccc24)[C@@H]3[C@@H]1C [CHEATOGLOBOSIN T] | 1.58 (≈ 3.17 µM) |  |  |  | 
CC1=C(C)[C@H]2[C@H](Cc3c[nH]c4ccccc34)NC(=O)[C@]23C(=O)/C=C/C(=O)[C@H](O)/C(C)=C/[C@@H](C)C/C=C/[C@H]3[C@@H]1O [CHEATOGLOBOSIN B] | 3.45 (≈ 6.53 µM) |  | 3.2 (≈ 6.05 µM) | 1 | 
C/C1=C\[C@@H](C)C/C=C/[C@H]2[C@@H]3O[C@]3(C)[C@@H](C)[C@H]3[C@H](Cc4c[nH]c5ccccc45)NC(=O)[C@]32C(=O)CCC(=O)C1=O [CHAETOGLOBOSIN C] |  |  | 3.2 (≈ 6.05 µM) |  | 
C/C1=C\[C@@H](C)C/C=C/[C@H]2[C@@H]3O[C@]3(C)[C@@H](C)[C@H]3[C@H](Cc4c[nH]c5ccccc45)NC(=O)[C@]32C(=O)CC[C@H](O)C1=O [CHAETOGLOBOSIN F] |  |  | 3.2 (≈ 6.03 µM) |  | 
CC1=C[C@@H]2/C=C/C[C@H](C)/C=C(\C)CC(=O)/C=C/C(=O)[C@]23C(=O)N[C@@H](Cc2c[nH]c4ccccc24)[C@@H]3[C@@H]1C [PROCHEATOGLOBOSIN II] | 3.99 (≈ 8.03 µM) | 2 |  |  | 
C/C1=C\[C@@H](C)C/C=C/[C@H]2[C@H](O)[C@](C)(O)[C@@H](C)[C@H]3[C@H](Cc4c[nH]c5ccccc45)NC(=O)[C@]32C(=O)/C=C/C(=O)[C@@H]1O [CHAETOGLOBOSIN Q] | 2.19 (≈ 4.01 µM) |  |  |  | 
C=C1[C@@H](C)[C@H]2[C@H](Cc3c[nH]c4ccccc34)NC(=O)[C@]23C(=O)/C=C/C(=O)[C@H](O)/C(C)=C/[C@@H](C)C/C=C/[C@H]3[C@@H]1O [CHEATOGLOBOSIN D] | 4.92 (≈ 9.31 µM) |  | 3.2 (≈ 6.05 µM) | 3 | 
CC1=C[C@@H]2/C=C/C[C@H](C)/C=C(\C)[C@@H](O)C(=O)/C=C/C(=O)[C@]23C(=O)N[C@@H](Cc2c[nH]c4ccccc24)[C@@H]3[C@@H]1C [CHEATOGLOBOSIN J] | 2.47 (≈ 4.82 µM) |  | 3.2 (≈ 6.24 µM) | 2 | 
CC1=C(C)[C@H]2[C@H](Cc3c[nH]c4ccccc34)NC(=O)[C@]23C(=O)CCC(=O)C(=O)/C(C)=C/[C@@H](C)C/C=C/[C@H]3[C@@H]1O [CHEATOGLOBOSIN G] |  |  | 3.2 (≈ 6.05 µM) |  | 
